Test results from patent publication US7071231B2, “Naphthalene ureas as glucose uptake enhancers” (Telik, Inc., priority 1999, dated 2006).
Read-outs that look alike come from different tables or passages of the source.

Assays:
[1] = system: 3T3 L1 fibroblasts; test: Glucose transport activity assay (14C-2-deoxy-D-glucose uptake); assay type: cell-based; conditions: EC (effective concentration) for increase in glucose transport, 14C-2-deoxy-D-glucose, 3T3 L1 cells, read-out: Concentration (μM) to reach >150% activity of vehicle control
Summary of the method: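 Differentiated 3T3 L1 adipocytes (IBMX/dexamethasone/insulin induction), serum-starved overnight, preincubated 30 min at 37 °C with compound ± insulin in pH 7.4 salt buffer, then 30 min with 5 μCi/ml 14C-2-deoxy-D-glucose. Lysate radioactivity counted; EC = concentration raising uptake above 150% of vehicle control.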

[2] = molecular target: T1, β-kinase domain of the human insulin receptor (CKD) (Homo sapiens, UniProt P06213); test: 32P-cytoplasmic kinase domain (CKD) autophosphorylation assay; assay type: biochemical; conditions: phosphorylation of CKD expressed as % of the vehicle level; 10 minutes at room temperature; compound concentration not given
T1 construct: The complete β-kinase domain of the human insulin receptor (CKD) was expressed in, and purified from, baculovirus; made in house
T1 sequence (P06213 980-1382 limits assumed): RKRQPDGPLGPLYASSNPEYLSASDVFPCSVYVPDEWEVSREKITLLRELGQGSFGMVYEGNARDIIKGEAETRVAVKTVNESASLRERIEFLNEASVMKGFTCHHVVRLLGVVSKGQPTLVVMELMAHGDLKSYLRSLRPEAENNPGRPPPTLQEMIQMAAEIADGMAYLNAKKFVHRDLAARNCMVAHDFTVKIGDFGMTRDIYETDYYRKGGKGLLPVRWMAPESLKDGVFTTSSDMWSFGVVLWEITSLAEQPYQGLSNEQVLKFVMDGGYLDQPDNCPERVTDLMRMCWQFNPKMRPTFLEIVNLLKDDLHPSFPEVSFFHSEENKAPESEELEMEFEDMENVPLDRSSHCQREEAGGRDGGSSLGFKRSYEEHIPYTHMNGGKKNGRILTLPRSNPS
Experimental: ^32P-cytoplasmic Kinase Domain (CKD) Autophosphorylation Assay The insulin signaling pathway is activated through stimulation of the insulin receptor. A major component of this activation is the phosphorylation of a specific portion of the receptor called the β-kinase domain. The complete β-kinase domain of the human insulin receptor (CKD) was expressed in, and purified from, baculovirus. CKD (4.0μg/ml), in a solution of 29 mM HEPES (pH 7.6), 0.05% Triton X-100, 10 mM MgCl2, 2 mM MnCl2 (50 μl final volume), was combined with 50 μM ATP, and 5 μCi ^32P-ATP (3000Ci/mmol.). A test compound, or the vehicle (dimethyl sulfoxide (DMSO)) was added to a final DMSO concentration of 1%. The mixture was incubated for 10 minutes at room temperature. The reaction was terminated by the addition of 10 μl 200 mM EDTA. A 30 μl volume was removed, mixed with 5 μl of 6× Laemmeli sodium dodecyl sulfate (SDS) treatment buffer, and heated to 94° C. for 5 minutes. A 20 μl aliquot was then run an SDS-PAGE gel. The radioactivity incorporated into the CKD band was quantified by phosphorimaging of the gel, or scintillation counting of the excised bands. The potency of a compound for increasing phosphorylation was expressed as % of the vehicle level.

[3] = system: STZ/HFD rat; test: Blood glucose determination in the STZ/HFD rat model of Type 2 diabetes; assay type: in vivo; conditions: STZ/HFD rat model, oral compound administration (30 mg/kg)
Description: Blood Glucose Determination in the STZ/HFD Rat Model of Type 2 Diabetes
Representative compounds were also profiled in genetically normal rats given a high-fat diet followed by treatment with a low dose of streptozotocin (STZ/HFD). This treatment regimen recreates both the insulin resistance and the hyperglycemia seen in human Type 2 diabetes. Male CD rats (Jackson Labs, Bar Harbor Me.) were maintained according to NIH guidelines, housed two per cage, and fed either standard lab chow (Tekland Laboratory Diets, James Grain, San Jose, Calif.) or the same chow supplemented with chocolate bars, cookies, and potato chips such that their final diet contained 30% fat by weight (high-fat diet; HFD). After two weeks of this diet, the animals were given an injection of freshly-prepared streptozotocin (35 mg/kg, i.p.) and continued on the HFD. Animals that achieved glucose levels of 190 to 380 mg/dl were used in this study. At the end of the 12-hour light/dark cycle, and just prior to the experiment, the animals were moved to new cages with no food available until 4 hours after treatment. The compound or vehicle (PBS) was given p.o. by gavage, and blood was sampled by approved IACUC protocol using tail cap method. Glucose was determined using the Glucometer Elite (Bayer, Elkhart, Ind.).
The reduction was maximal (20%) 4 hours after the administration of Compound 15.

SMILES | % Activity vs. Control [2] [%] | EC (150% of vehicle control) ([1]; Mus musculus) [µM] | % Reduction in Blood Glucose (maximal reduction) [3] [%] | Time (h) at which maximal reduction in blood glucose occurred [3] [h] | EC (150% of vehicle control) [1] [µM]
O=C(Nc1ccc2ccc(S(=O)(=O)Nc3ccc(Cl)c(C(=O)O)c3)cc2c1)Nc1ccc2ccc(S(=O)(=O)Nc3ccc(Cl)c(C(=O)O)c3)cc2c1 [Compound 48, 5-{[(7-{[N-(7-{[(3-carboxy-4-chlorophenyl)amino]sulfonyl}(2-naphthyl))carbamoyl]amino}(2-naphthyl))sulfonyl]amino}-2-chlorobenzoic acid] |  | 3.2 | 24 | 2 | 
O=C(Nc1ccc2ccc(S(=O)(=O)Nc3cccnc3)cc2c1)Nc1ccc2ccc(S(=O)(=O)Nc3cccnc3)cc2c1 [Compound 77, N-{7-[(3-pyridylamino)sulfonyl](2-naphthyl)}({7-[(3-pyridylamino)sulfonyl](2-naphthyl)}amino)carboxamide] | 171 | 3.2 |  |  | 
NS(=O)(=O)c1ccc2ccc(NC(=O)Nc3ccc4ccc(S(N)(=O)=O)cc4c3)cc2c1 [Compound 89, N-(7-sulfamoyl(2-naphthyl))[(7-sulfamoyl(2-naphthyl))amino]carboxamide] | 104 | 3.2 |  |  | 
O=C(Nc1ccc2c(O)cc(S(=O)(=O)Nc3ccc(Cl)c(S(=O)(=O)O)c3)cc2c1)Nc1ccc2c(O)cc(S(=O)(=O)Nc3ccc(Cl)c(S(=O)(=O)O)c3)cc2c1 [Compound 93, 2-chloro-5-{[(7-{[(7-{[(4-chloro-3-sulfophenyl)amino]sulfonyl}-5-hydroxy(2-naphthyl))amino]carbonylamino}-4-hydroxy(2-naphthyl))sulfonyl]amino}benzenesulfonic acid] |  | 3.2 | 25 | 4 | 
CCOC(=O)COc1cc(S(=O)(=O)O)cc2cc(NC(=O)Nc3ccc4c(O)cc(S(=O)(=O)O)cc4c3)ccc12.N.N [Compound 94, 7-[({5-[(ethoxycarbonyl)methoxy]-7-sulfo(2-naphthyl)}amino)carbonylamino]-4-hydroxy-naphthalene-2-sulfonic acid, diammonium salt] | 279 |  |  |  | 32
COc1cc(S(=O)(=O)O)cc2cc(NC(=O)Nc3ccc4c(OC)cc(S(=O)(=O)O)cc4c3)ccc12 [Compound 99, 4-methoxy-7-{[(5-methoxy-7-sulfo(2-naphthyl))amino]carbonylamino}naphthalene-2-sulfonic acid] | 110 | 32 |  |  | 

Further lines, with some results ahead:

% Activity vs. Control [2] [%] | SMILES | EC (150% of vehicle control) ([1]; Mus musculus) [µM] | % Reduction in Blood Glucose (maximal reduction) [3] [%] | Time (h) at which maximal reduction in blood glucose occurred [3] [h] | EC (150% of vehicle control) [1] [µM]
124 | COC(=O)c1ccc(NS(=O)(=O)c2cc(O)c3ccc(NC(=O)Nc4ccc5c(O)cc(S(=O)(=O)O)cc5c4)cc3c2)cc1 [Compound 26, 4-hydroxy-7-({[5-hydroxy-7-({[4-(methoxycarbonyl)phenyl]amino}sulfonyl)(2-naphthyl)]amino}carbonylamino)naphthalene-2-sulfonic acid] | 32 |  |  | 
124 | O=C(Nc1ccc2c(O)cc(S(=O)(=O)O)cc2c1)Nc1ccc2c(O)cc(S(=O)(=O)Nc3ccc(C(=O)O)cc3)cc2c1 [Compound 28, 4-{[(4-hydroxy-7-{[N-(5-hydroxy-7-sulfo(2-naphthyl))carbamoyl]amino}-2-naphthyl)sulfonyl]amino}benzoic acid] | 32 |  |  | 
106 | O=C(Nc1ccc2c(O)cc(S(=O)(=O)Nc3ccc(C(=O)O)cc3)cc2c1)Nc1ccc2c(O)cc(S(=O)(=O)Nc3ccc(C(=O)O)cc3)cc2c1 [Compound 29, 4-{[(7-{[N-(7-{[(4-carboxyphenyl)amino]sulfonyl}-5-hydroxy(2-naphthyl))carbamoyl]amino}-4-hydroxy-2-naphthyl)sulfonyl]amino}benzoic acid] | 3.2 | 18 | 6 | 
93 | COC(=O)c1cccc(NS(=O)(=O)c2ccc3ccc(NC(=O)Nc4ccc5ccc(S(=O)(=O)Nc6cccc(C(=O)OC)c6)cc5c4)cc3c2)c1 [Compound 39, methyl 3-({[7-({[7-({[3-(methoxycarbonyl)phenyl]amino}sulfonyl)-2-naphthyl]amino}carbonylamino)-2-naphthyl]sulfonyl}amino)benzoate] | 32 |  |  | 
130 | O=C(Nc1ccc2ccc(S(=O)(=O)Nc3cccc(C(=O)O)c3)cc2c1)Nc1ccc2ccc(S(=O)(=O)Nc3cccc(C(=O)O)c3)cc2c1 [Compound 40, 3-{[(7-{[N-(7-{[(3-carboxyphenyl)amino]sulfonyl}-2-naphthyl)carbamoyl]amino}-2-naphthyl)sulfonyl]amino}benzoic acid] | 3.2 |  |  | 
109 | COC(=O)c1cccc(NS(=O)(=O)c2cc(O)c3ccc(NC(=O)Nc4ccc5c(O)cc(S(=O)(=O)Nc6cccc(C(=O)OC)c6)cc5c4)cc3c2)c1 [Compound 41, methyl 3-({[4-hydroxy-7-({[5-hydroxy-7-({[3-(methoxycarbonyl)phenyl]amino}sulfonyl)(2-naphthyl)]amino}carbonylamino)-2-naphthyl]sulfonyl}amino)benzoate] | 32 | 20 | 4 | 
124 | O=C(Nc1ccc2c(O)cc(S(=O)(=O)Nc3cccc(C(=O)O)c3)cc2c1)Nc1ccc2c(O)cc(S(=O)(=O)Nc3cccc(C(=O)O)c3)cc2c1 [Compound 42, 3-{[(7-{[N-(7-{[(3-carboxyphenyl)amino]sulfonyl}-5-hydroxy(2-naphthyl))carbamoyl]amino}-4-hydroxy-2-naphthyl)sulfonyl]amino}benzoic acid] | 3.2 |  |  | 
166 | COc1cc(S(=O)(=O)O)cc2cc(NC(=O)Nc3ccc4c(O)cc(S(=O)(=O)O)cc4c3)ccc12 [Compound 98, 4-hydroxy-7-{[(5-methoxy-7-sulfo(2-naphthyl))amino]carbonylamino}naphthalene-2-sulfonic acid] | 32 |  |  | 
